Data reported in PubChem BioAssay (NCI).
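Briefly, cells in 96-well plates were exposed to five compound concentrations for 48 h, and endpoints were estimated by linear interpolation. TGI: concentration producing complete growth inhibition.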

Legend:
Experiment in all cases: NCI anticancer screen, dose series, 48 h
T-47D breast = test system: T-47D breast
HL-60(TB) leukemia = test system: HL-60(TB) leukemia
HCC-2998 colon = test system: HCC-2998 colon
SNB-75 CNS = test system: SNB-75 CNS
NCI-H23 lung = test system: NCI-H23 lung
MDA-MB-231 breast = test system: MDA-MB-231 breast
BT-549 breast = test system: BT-549 breast
SF-268 CNS = test system: SF-268 CNS
SK-MEL-5 melanoma = test system: SK-MEL-5 melanoma
MCF7 breast = test system: MCF7 breast
IGROV1 ovarian = test system: IGROV1 ovarian
786-0 renal = test system: 786-0 renal
SN12C renal = test system: SN12C renal
SNB-19 CNS = test system: SNB-19 CNS
NCI/ADR-RES ovarian = test system: NCI/ADR-RES ovarian
HOP-62 NSCLC = test system: HOP-62 NSCLC
SW-620 colon = test system: SW-620 colon
SR leukemia = test system: SR leukemia
UACC-62 melanoma = test system: UACC-62 melanoma
HCT-15 colon = test system: HCT-15 colon
CAKI-1 renal = test system: CAKI-1 renal
A498 renal = test system: A498 renal
HT29 colon = test system: HT29 colon
KM12 colon = test system: KM12 colon
MOLT-4 leukemia = test system: MOLT-4 leukemia
HCT-116 colon = test system: HCT-116 colon
U251 CNS = test system: U251 CNS
OVCAR-5 ovarian = test system: OVCAR-5 ovarian
SK-MEL-2 melanoma = test system: SK-MEL-2 melanoma
OVCAR-3 ovarian = test system: OVCAR-3 ovarian
PC-3 prostate = test system: PC-3 prostate
NCI-H226 lung = test system: NCI-H226 lung
MALME-3M melanoma = test system: MALME-3M melanoma
SF-295 CNS = test system: SF-295 CNS
K-562 leukemia = test system: K-562 leukemia
HS 578T breast = test system: HS 578T breast
ACHN renal = test system: ACHN renal
UO-31 renal = test system: UO-31 renal
COLO 205 colon = test system: COLO 205 colon
UACC-257 melanoma = test system: UACC-257 melanoma
SK-OV-3 ovarian = test system: SK-OV-3 ovarian
OVCAR-8 ovarian = test system: OVCAR-8 ovarian
MDA-N = test system: MDA-N
NCI-H460 lung = test system: NCI-H460 lung
DU-145 prostate = test system: DU-145 prostate
M14 melanoma = test system: M14 melanoma
CCRF-CEM leukemia = test system: CCRF-CEM leukemia
A549 NSCLC = test system: A549 NSCLC
NCI-H522 lung = test system: NCI-H522 lung
MDA-MB-435 = test system: MDA-MB-435
SF-539 CNS = test system: SF-539 CNS
LOX IMVI melanoma = test system: LOX IMVI melanoma
EKVX NSCLC = test system: EKVX NSCLC
RXF 393 renal = test system: RXF 393 renal
TK-10 renal = test system: TK-10 renal
SK-MEL-28 melanoma = test system: SK-MEL-28 melanoma
HOP-92 NSCLC = test system: HOP-92 NSCLC
OVCAR-4 ovarian = test system: OVCAR-4 ovarian

How did the TGI (T-47D breast) turn out when `COc1ccc2cc(C(=O)O)ccc2c1OC` was run?
Its TGI is over 100 µM.

What about the TGI (HL-60(TB) leukemia) of the same compound?
The TGI was over 100 µM.

And the TGI (HCC-2998 colon)?
The TGI was over 100 µM.

And the TGI (SNB-75 CNS)?
The TGI was over 100 µM.

What about the TGI (NCI-H23 lung) of the same compound?
Its TGI is over 100 µM.

What about the TGI (MDA-MB-231 breast) of the same compound?
Its TGI is over 100 µM.

What about the TGI (BT-549 breast) of the same compound?
The TGI was over 100 µM.

What about the TGI (SF-268 CNS) of the same compound?
The TGI was over 100 µM.

What about the TGI (SK-MEL-5 melanoma) of the same compound?
Its TGI is over 100 µM.

What about the TGI (MCF7 breast) of the same compound?
Its TGI is over 100 µM.

And the TGI (IGROV1 ovarian)?
Its TGI is over 100 µM.

What about the TGI (786-0 renal) of the same compound?
Its TGI is over 100 µM.

What about the TGI (SN12C renal) of the same compound?
Its TGI is over 100 µM.

What about the TGI (SNB-19 CNS) of the same compound?
Its TGI is over 100 µM.

What about the TGI (NCI/ADR-RES ovarian) of the same compound?
Its TGI is over 100 µM.

What about the TGI (HOP-62 NSCLC) of the same compound?
Its TGI is over 100 µM.

What about the TGI (SW-620 colon) of the same compound?
The TGI was over 100 µM.

What about the TGI (SR leukemia) of the same compound?
The TGI was over 100 µM.

What about the TGI (UACC-62 melanoma) of the same compound?
The TGI was over 100 µM.

And the TGI (HCT-15 colon)?
The TGI was over 100 µM.

And the TGI (CAKI-1 renal)?
The TGI was over 100 µM.

What about the TGI (A498 renal) of the same compound?
Its TGI is over 100 µM.

And the TGI (HT29 colon)?
Its TGI is over 100 µM.

And the TGI (KM12 colon)?
Its TGI is over 100 µM.

And the TGI (MOLT-4 leukemia)?
Its TGI is over 100 µM.

What about the TGI (HCT-116 colon) of the same compound?
Its TGI is over 100 µM.

And the TGI (U251 CNS)?
The TGI was over 100 µM.

What about the TGI (OVCAR-5 ovarian) of the same compound?
Its TGI is over 100 µM.

What about the TGI (SK-MEL-2 melanoma) of the same compound?
The TGI was over 100 µM.

What about the TGI (OVCAR-3 ovarian) of the same compound?
Its TGI is over 100 µM.

And the TGI (PC-3 prostate)?
Its TGI is over 100 µM.

What about the TGI (NCI-H226 lung) of the same compound?
The TGI was over 100 µM.

And the TGI (MALME-3M melanoma)?
Its TGI is over 100 µM.

And the TGI (SF-295 CNS)?
Its TGI is over 100 µM.

And the TGI (K-562 leukemia)?
Its TGI is over 100 µM.

What about the TGI (HS 578T breast) of the same compound?
The TGI was over 100 µM.

What about the TGI (ACHN renal) of the same compound?
Its TGI is over 100 µM.

And the TGI (UO-31 renal)?
Its TGI is over 100 µM.

And the TGI (COLO 205 colon)?
Its TGI is over 100 µM.

What about the TGI (UACC-257 melanoma) of the same compound?
Its TGI is over 100 µM.

What about the TGI (SK-OV-3 ovarian) of the same compound?
The TGI was over 100 µM.

What about the TGI (OVCAR-8 ovarian) of the same compound?
The TGI was over 100 µM.

What about the TGI (MDA-N) of the same compound?
Its TGI is over 100 µM.

And the TGI (NCI-H460 lung)?
Its TGI is over 100 µM.

What about the TGI (DU-145 prostate) of the same compound?
The TGI was over 100 µM.

And the TGI (M14 melanoma)?
Its TGI is over 100 µM.

And the TGI (CCRF-CEM leukemia)?
Its TGI is over 100 µM.

What about the TGI (A549 NSCLC) of the same compound?
The TGI was over 100 µM.

And the TGI (NCI-H522 lung)?
Its TGI is over 100 µM.

What about the TGI (MDA-MB-435) of the same compound?
The TGI was over 100 µM.

What about the TGI (SF-539 CNS) of the same compound?
Its TGI is over 100 µM.

What does the source list for `COc1cccc2c1OC(c1ccc(C#N)cc1)C([N+](=O)[O-])=C2` (stereo unspecified)?
TGI (HL-60(TB) leukemia): 5.62 µM; TGI (HCC-2998 colon): 3.15 µM; TGI (SNB-75 CNS): 7.32 µM; TGI (NCI-H23 lung): 3.25 µM; TGI (MDA-MB-231 breast): 2.92 µM; TGI (BT-549 breast): 2.85 µM; TGI (SF-268 CNS): 16.1 µM; TGI (LOX IMVI melanoma): 3.38 µM; TGI (SK-MEL-5 melanoma): 2.87 µM; TGI (MCF7 breast): 2.88 µM; TGI (IGROV1 ovarian): 3.76 µM; TGI (786-0 renal): 11.9 µM; TGI (SN12C renal): 4.37 µM; TGI (SNB-19 CNS): 19.2 µM; TGI (NCI/ADR-RES ovarian): > 100 µM; TGI (HOP-62 NSCLC): 8.3 µM; TGI (SW-620 colon): 2.8 µM; TGI (SR leukemia): 3.11 µM; TGI (UACC-62 melanoma): 3.33 µM; TGI (HCT-15 colon): 3.11 µM; TGI (CAKI-1 renal): 4.89 µM; TGI (A498 renal): 4.03 µM; TGI (HT29 colon): 3.14 µM; TGI (HCT-116 colon): 2.8 µM; TGI (U251 CNS): 3.56 µM; TGI (OVCAR-5 ovarian): 3.72 µM; TGI (EKVX NSCLC): 18.9 µM; TGI (SK-MEL-2 melanoma): 4.38 µM; TGI (OVCAR-3 ovarian): 4.6 µM; TGI (PC-3 prostate): 4.13 µM; TGI (RXF 393 renal): 3.12 µM; TGI (NCI-H226 lung): 9.75 µM; TGI (MALME-3M melanoma): 2.97 µM; TGI (SF-295 CNS): 18.5 µM; TGI (K-562 leukemia): > 100 µM; TGI (TK-10 renal): 7.77 µM; TGI (HS 578T breast): 5.74 µM; TGI (SK-MEL-28 melanoma): 5.93 µM; TGI (ACHN renal): 3.49 µM; TGI (UO-31 renal): 3.01 µM; TGI (COLO 205 colon): 3.15 µM; TGI (UACC-257 melanoma): 2.68 µM; TGI (HOP-92 NSCLC): 3.27 µM; TGI (SK-OV-3 ovarian): 7.67 µM; TGI (OVCAR-8 ovarian): 5.28 µM; TGI (MDA-N): 2.87 µM; TGI (NCI-H460 lung): 4.92 µM; TGI (DU-145 prostate): 9.39 µM; TGI (OVCAR-4 ovarian): 3.11 µM; TGI (M14 melanoma): 3.18 µM; TGI (CCRF-CEM leukemia): 4.51 µM; TGI (A549 NSCLC): 7.03 µM; TGI (NCI-H522 lung): 0.412 µM; TGI (MDA-MB-435): 2.72 µM; TGI (SF-539 CNS): 4.23 µM
